Values quoted from earlier work, collected in patent US20260263442A1, “METHOD FOR TREATING L-DOPA-INDUCED DYSKINESIA USING BEFIRADOL” (Neurolixis, Inc., priority 2023, published 2026).

How the values were obtained:
[1] = tested on: striatal 5-HT1A receptors; settings: striatum of rat, cat, macaque and human; cited from earlier work
[2] = tested on: L-DOPA-induced dyskinesia in Parkinson's patients; settings: cited from earlier work; for Efficacy to alleviate LID, clinically tested / Effect on motor symptoms of Parkinson's disease: human, in vivo
[3] = tested on: L-DOPA-induced dyskinesia in Parkinson's patients; settings: human, in vivo; cited from earlier work

| SMILES | Efficacy to alleviate LID, clinically tested [2] | Effect on motor symptoms of Parkinson's disease [2] | further results |
| --- | --- | --- | --- |
| Cc1ccc(CNCC2(F)CCN(C(=O)c3ccc([18F])c(Cl)c3)CC2)nc1 [^18F-NLX-112] | – | – | Labelling of 5-HT1A receptors, PET brain imaging [1]: consistently labelled striatal 5-HT1A receptors |
| O=C1CC2(CCCC2)CC(=O)N1CCCCN1CCN(c2ncccn2)CC1 [buspirone] | limited efficacy | – | – |
| c1cc2c(c(N3CCNCC3)c1)OCCO2 [eltoprazine] | limited efficacy | – | – |
| Fc1ccc(-c2cncc(CNC[C@H]3CCc4ccccc4O3)c2)cc1 [sarizotan] | limited efficacy | no beneficial effect or even the opposite effect | Effect on L-DOPA efficacy, phase 2b study ([2]; Parkinson's patients with troublesome L-DOPA-induced dyskinesia): two of the three tested doses significantly reduced L-DOPA efficacy; Reduction of LID, two phase 3 clinical trials ([2]; third (and lowest) dose): ineffective in reducing LID |
| O=C1[C@@H]2[C@H]3CC[C@H](C3)[C@@H]2C(=O)N1CCCCN1CCN(c2ncccn2)CC1 [tandospirone] | limited efficacy | no beneficial effect or even the opposite effect | – |
| NC12CC3CC(CC(C3)C1)C2 [amantadine] | – | – | Proportion of patients who are non-responders [3]: about ⅓; Side effects limiting use [3]: hallucinations, confusion, leg edema, orthostatic hypotension |
